Reference: patent US20080306098A1, “Pharmacokinetics of protease inhibitors and other drugs” (priority 2006, published 2008)
Where two headings read alike, the source gives them in different places. Each block holds one compound with its values, some of them ahead of it.

Assays:
[1] = non-transplant patients; cited from earlier work
[2] = in vivo; cited from earlier work
CYP3a4 = molecular target: T1, CYP3a4 (Homo sapiens, UniProt P08684); assay: Fluorescence-based CYP3a4 assay (Invitrogen VIVID probes), with or without recombinant human FKBP; type: in vitro ADME
T1 construct: purchased Invitrogen (Carlsbad, Calif.)
Text: An amyloid ligand, curcumin, is known to be a good substrate for CYP3a4 (a common P450 enzyme). We investigated whether conjugates between curcumin and FK506 would also be substrates for the enzyme. To test this possibility, we utilized a well-known fluorescence-based CYP3a4 assay. This assay, marketed by Invitrogen (Carlsbad, Calif.), under the name VIVID probes, relies on cytochrome-mediated production of a fluorescent marker from a model substrate. When a compound, such as curcumin, binds to the P450, it displaces the substrate and reduces the rate of production of the fluorescent product. […] However, when we supplied a source of human FKBP (in this case, recombinant bacterially-expressed protein), we observed very different results as shown in FIG. 3. […] It is believed that FKBP protects the curcumin conjugates from degradation by sterically hindering CYP3a4 binding. In the presence of cellular FKBP sources, this effect would be predicted to be increased because the compartmentalization of the conjugate further reduces availability to P450 enzymes.

[3] = unmodified drug; cited from earlier work

T1 sequence (P08684 whole entry): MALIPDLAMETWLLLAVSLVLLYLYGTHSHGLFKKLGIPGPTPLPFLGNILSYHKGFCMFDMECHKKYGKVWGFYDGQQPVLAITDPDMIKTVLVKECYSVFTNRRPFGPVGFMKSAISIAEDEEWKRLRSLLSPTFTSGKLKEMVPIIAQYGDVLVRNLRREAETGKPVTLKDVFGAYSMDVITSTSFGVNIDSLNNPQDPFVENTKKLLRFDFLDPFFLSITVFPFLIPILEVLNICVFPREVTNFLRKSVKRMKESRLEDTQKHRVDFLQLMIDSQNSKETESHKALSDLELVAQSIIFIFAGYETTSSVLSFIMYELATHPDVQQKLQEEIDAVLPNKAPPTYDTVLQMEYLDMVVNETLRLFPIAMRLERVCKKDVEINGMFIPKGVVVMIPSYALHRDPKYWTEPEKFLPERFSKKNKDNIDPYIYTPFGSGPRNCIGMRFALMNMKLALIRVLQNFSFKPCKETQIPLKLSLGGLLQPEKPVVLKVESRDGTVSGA

SMILES: C=CC[C@@H]1/C=C(\C)C[C@H](C)C[C@H](OC)[C@H]2O[C@@](O)(C(=O)C(=O)N3CCCC[C@H]3C(=O)O[C@H](/C(C)=C/[C@@H]3CC[C@@H](O)[C@H](OC)C3)[C@H](C)[C@@H](O)CC1=O)[C@H](C)C[C@@H]2OC [FK506, FK506 (tacrolimus)]
half-life [1]: 21 h | distribution into protected cellular compartments (in the blood) [2]: 72-98%

protection from degradation by CYP3a4 (CYP3a4; in the presence of recombinant human FKBP): unable to protect | substrate for CYP3a4 (CYP3a4; without FKBP): good substrates
SMILES: COc1cc(/C=C/C(=O)CC(=O)/C=C/c2ccc(O)c(OC)c2)ccc1O [curcumin]

SMILES: CN(Cc1cnc2nc(N)nc(N)c2n1)c1ccc(C(=O)N[C@@H](CCC(=O)O)C(=O)O)cc1 [methotrexate]
half-life [3]: 6 h
